Reference: US9340521B2, “Method for dual inhibition of SGLT1 and SGLT2 using diphenylmethane derivatives” (GREEN CROSS CORPORATION, priority 2013, dated 2016)

What was measured:
[1] = target: Human SGLT2 (hSGLT2) (Homo sapiens (Human), UniProt P31639); experiment: Inhibitory effects on human SGLT2 activities (14C-AMG uptake, sodium-dependent glucose transport assay); format: cell-based; conditions: hSGLT2-expressing CHO cells, 37° C. for 2 h, single determinations
Source text: Test 1: Cloning and Cell Line Construction for Human SGLT2
Human SGLT2 (hSGLT2) gene was amplified by PCR from cDNA-Human Adult Normal Tissue Kidney (Invitrogen). The hSGLT2 sequence was cloned into pcDNA3.1(+) for mammalian expression and stably transfected into chinese hamster ovary (CHO) cells. SGLT2-expressing clones were selected based on resistance to G418 antibiotic (Geneticin) and activity in the ^14C-α-methyl-D-glucopyranoside (^14C-AMG) uptake assay.
Test 2: Inhibitory Effects on Human SGLT2 Activities
(§1) For sodium-dependent glucose transport assay, cells expressing hSGLT2 were seeded into a 96-well culture plate at a density of 5×10^4 cells/well in RPMI medium 1640 containing 10% fetal bovine serum. The cells were used 1 day after plating. They were incubated in pretreatment buffer (10 mM HEPES, 5 mM Tris, 140 mM choline chloride, 2 mM KCl, 1 mM CaCl2, and 1 mM MgCl2, pH 7.4) at 37° C. for 10 min. They were then incubated in uptake buffer (10 mM HEPES, 5 mM Tris, 140 mM NaCl, 2 mM KCl, 1 mM CaCl2, 1 mM MgCl2, and 1 mM ^14C-nonlabeled AMG pH 7.4) containing ^14C-labeled AMG (8 μM) and the inventive compound or dimethyl sulfoxide (DMSO) vehicle at 37° C. for 2 h. Cells were washed twice with washing buffer (pretreatment buffer containing 10 mM AMG at room temperature) and then the radioactivity was measured using a liquid scintillation counter. IC50 was determined by nonlinear regression analysis using GraphPad PRISM [Katsuno, K. et al. J. Pharmacol. Exp. Ther. 2007, 320, 323-330; Han, S. et al. Diabetes, 2008, 57, 1723-1729].

[2] = target: Human SGLT1 (hSGLT1) (Homo sapiens (Human), UniProt P13866); experiment: Inhibitory effects on human SGLT1 activities (14C-AMG uptake, sodium-dependent glucose transport assay); format: cell-based; conditions: 37° C. for 2 h, single determinations
Chain of Human SGLT1 (hSGLT1) (P13866 whole entry): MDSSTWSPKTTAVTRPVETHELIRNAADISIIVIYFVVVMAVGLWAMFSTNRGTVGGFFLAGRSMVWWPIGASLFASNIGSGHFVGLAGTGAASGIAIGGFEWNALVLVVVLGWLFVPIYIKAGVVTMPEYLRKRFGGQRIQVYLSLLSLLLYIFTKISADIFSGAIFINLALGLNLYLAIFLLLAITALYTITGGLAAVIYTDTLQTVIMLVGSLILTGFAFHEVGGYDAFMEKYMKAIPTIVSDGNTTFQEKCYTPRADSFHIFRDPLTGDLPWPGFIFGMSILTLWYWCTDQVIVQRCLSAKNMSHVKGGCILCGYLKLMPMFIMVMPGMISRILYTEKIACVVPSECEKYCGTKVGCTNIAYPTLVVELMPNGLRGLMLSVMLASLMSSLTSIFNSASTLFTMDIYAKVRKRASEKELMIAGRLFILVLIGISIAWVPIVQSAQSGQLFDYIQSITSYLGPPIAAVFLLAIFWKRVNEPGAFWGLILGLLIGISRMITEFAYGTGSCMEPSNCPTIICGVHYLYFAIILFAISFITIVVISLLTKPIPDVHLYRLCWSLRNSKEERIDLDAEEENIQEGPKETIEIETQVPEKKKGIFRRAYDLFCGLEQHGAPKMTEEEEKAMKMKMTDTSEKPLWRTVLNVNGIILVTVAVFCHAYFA
Experimental: Test 3: Inhibitory Effects on Human SGLT1 Activities
as §1, with “^14C-labeled” for “^14C-labeled AMG”, “inhibitor” for “the inventive compound”, “PRISM.” for “PRISM [Katsuno, K. et al. J. Pharmacol. Exp. Ther. 2007, 320, 323-330; Han, S. et al. Diabetes, 2008, 57, 1723-1729].”

Chain of Human SGLT2 (hSGLT2) (P31639 whole entry): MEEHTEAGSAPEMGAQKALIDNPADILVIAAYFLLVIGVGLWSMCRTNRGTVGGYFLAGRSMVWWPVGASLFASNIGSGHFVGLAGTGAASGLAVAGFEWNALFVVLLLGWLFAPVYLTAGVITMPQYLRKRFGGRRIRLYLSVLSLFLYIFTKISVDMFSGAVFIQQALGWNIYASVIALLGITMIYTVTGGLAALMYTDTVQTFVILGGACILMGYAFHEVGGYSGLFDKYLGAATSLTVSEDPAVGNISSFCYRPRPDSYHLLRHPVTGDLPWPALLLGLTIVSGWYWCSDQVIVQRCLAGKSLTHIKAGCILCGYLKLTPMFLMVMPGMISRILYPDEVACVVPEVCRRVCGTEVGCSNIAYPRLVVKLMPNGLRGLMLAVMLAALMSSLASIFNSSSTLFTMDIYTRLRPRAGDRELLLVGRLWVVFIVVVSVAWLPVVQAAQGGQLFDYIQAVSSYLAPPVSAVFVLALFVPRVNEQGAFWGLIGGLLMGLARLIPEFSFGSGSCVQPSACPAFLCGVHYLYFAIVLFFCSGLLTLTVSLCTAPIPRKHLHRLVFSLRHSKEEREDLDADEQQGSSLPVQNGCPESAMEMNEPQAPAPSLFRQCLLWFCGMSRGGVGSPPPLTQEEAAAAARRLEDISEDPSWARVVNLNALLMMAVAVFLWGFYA

Structure (SMILES)	IC50 [1] [nM]	IC50 [2] [nM]
Cc1ccc(Cc2cc([C@@H]3O[C@H](CO)[C@@H](O)[C@H](O)[C@H]3O)c3c(c2Cl)OCCO3)cc1 [Compound E042, (2S,3R,4R,5S,6R)-2-(8-chloro-7-(4-methylbenzyl)-2,3-dihydrobenzo[b][1,4]dioxin-5-yl)-6-(hydroxymethyl)tetrahydro-2H-pyran-3,4,5-triol]	1	9.2
CCc1ccc(Cc2cc([C@@H]3O[C@H](CO)[C@@H](O)[C@H](O)[C@H]3O)c3c(c2Cl)CCCC3)cc1 [Compound E043, (2S,3R,4R,5S,6R)-2-(4-Chloro-3-(4-ethylbenzyl)-5,6,7,8-tetrahydronaphthalen-1-yl)-6-(hydroxymethyl)tetrahydro-2H-pyran-3,4,5-triol]	0.49	32.6
CCc1ccc(Cc2cc([C@@H]3O[C@H](CO)[C@@H](O)[C@H](O)[C@H]3O)c3c(c2C)CCCC3)cc1 [Compound E044, (2S,3R,4R,5S,6R)-2-(3-(4-Ethylbenzyl)-4-methyl-5,6,7,8-tetrahydronaphthalen-1-yl)-6-(hydroxymethyl)tetrahydro-2H-pyran-3,4,5-triol]	0.59	10.4
Cc1ccc(Cc2cc([C@@H]3O[C@H](CO)[C@@H](O)[C@H](O)[C@H]3O)c3c(c2Cl)OCCC3)cc1 [Compound E045, (2S,3R,4R,5S,6R)-2-(8-Chloro-7-(4-methylbenzyl)chroman-5-yl)-6-(hydroxymethyl)tetrahydro-2H-pyran-3,4,5-triol]	1.9	36.7
Cc1ccc(Cc2cc([C@@H]3O[C@H](CO)[C@@H](O)[C@H](O)[C@H]3O)c3c(c2Cl)CCO3)cc1 [Compound E046, (2S,3R,4R,5S,6R)-2-(4-Chloro-5-(4-methylbenzyl)-2,3-dihydrobenzofuran-7-yl)-6-(hydroxymethyl)tetrahydro-2H-pyran-3,4,5-triol]	1.4	29.9
CCOc1ccc(Cc2cc([C@@H]3O[C@H](CO)[C@@H](O)[C@H](O)[C@H]3O)c3c(c2C)CCCC3)cc1 [Compound E047, (2S,3R,4R,5S,6R)-2-(3-(4-Ethoxybenzyl)-4-methyl-5,6,7,8-tetrahydronaphthalen-1-yl)-6-(hydroxymethyl)tetrahydro-2H-pyran-3,4,5-triol]	1.3	27.1
COc1ccc(Cc2cc([C@@H]3O[C@H](SC)[C@@H](O)[C@H](O)[C@H]3O)c3c(c2Cl)CCC3)cc1 [Compound E048, (2S,3R,4R,5S,6R)-2-(7-Chloro-6-(4-methoxybenzyl)-2,3-dihydro-1H-inden-4-yl)-6-(methylthio)tetrahydro-2H-pyran-3,4,5-triol]	0.5	33.7
CSc1ccc(Cc2cc([C@@H]3O[C@H](CO)[C@@H](O)[C@H](O)[C@H]3O)c3c(c2Cl)OCO3)cc1 [Compound E049, (2S,3R,4R,5S,6R)-2-(7-Chloro-6-(4-(methylthio)benzyl)benzo[d][1,3]dioxol-4-yl)-6-(hydroxymethyl)tetrahydro-2H-pyran-3,4,5-triol]	0.8	50.3
CSc1ccc(Cc2cc([C@@H]3O[C@H](CO)[C@@H](O)[C@H](O)[C@H]3O)c3c(c2Cl)OCCO3)cc1 [Compound E050, (2S,3R,4R,5S,6R)-2-(8-Chloro-7-(4-(methylthio)benzyl)-2,3-dihydrobenzo[b][1,4]dioxin-5-yl)-6-(hydroxymethyl)tetrahydro-2H-pyran-3,4,5-triol]	0.85	23.2
CCOc1ccc(Cc2cc([C@@H]3O[C@H](SC)[C@@H](O)[C@H](O)[C@H]3O)c3c(c2Cl)OCO3)cc1 [Compound E051, (2S,3R,4R,5S,6R)-2-(7-Chloro-6-(4-ethoxybenzyl)benzo[d][1,3]dioxol-4-yl)-6-(methylthio)tetrahydro-2H-pyran-3,4,5-triol]	0.49	62.4
Cc1ccc(Cc2cc([C@@H]3O[C@H](CO)[C@@H](O)[C@H](O)[C@H]3O)c3c(c2Cl)CCCO3)cc1 [Compound E052, (2S,3R,4R,5S,6R)-2-(5-Chloro-6-(4-methylbenzyl)chroman-8-yl)-6-(hydroxymethyl)tetrahydro-2H-pyran-3,4,5-triol]	1.1	9.2
OC[C@H]1O[C@@H](c2cc(Cc3cc4ccccc4s3)c(Cl)c3c2OCO3)[C@H](O)[C@@H](O)[C@@H]1O [Compound E053, (2S,3R,4R,5S,6R)-2-(6-(Benzo[b]thiophen-2-ylmethyl)-7-chlorobenzo[d][1,3]dioxol-4-yl)-6-(hydroxymethyl)tetrahydro-2H-pyran-3,4,5-triol]	1.5	41
OC[C@H]1O[C@@H](c2cc(Cc3ccc(-c4ccc(F)cc4)s3)c(Cl)c3c2OCCO3)[C@H](O)[C@@H](O)[C@@H]1O [Compound E054, (2S,3R,4R,5S,6R)-2-(8-Chloro-7-((5-(4-fluorophenyl)thiophen-2-yl)methyl)-2,3-dihydrobenzo[b][1,4]dioxin-5-yl)-6-(hydroxymethyl)tetrahydro-2H-pyran-3,4,5-triol]	1.1	125
OC[C@H]1O[C@@H](c2cc(Cc3cc4ccccc4s3)c(Cl)c3c2CCO3)[C@H](O)[C@@H](O)[C@@H]1O [Compound E055, (2S,3R,4R,5S,6R)-2-(6-(Benzo[b]thiophen-2-ylmethyl)-7-chloro-2,3-dihydrobenzofuran-4-yl)-6-(hydroxymethyl)tetrahydro-2H-pyran-3,4,5-triol]	1.4	148
OC[C@H]1O[C@@H](c2cc(Cc3cc4ccccc4s3)c(Cl)c3c2OCCO3)[C@H](O)[C@@H](O)[C@@H]1O [Compound E056, (2S,3R,4R,5S,6R)-2-(7-(Benzo[b]thiophen-2-ylmethyl)-8-chloro-2,3-dihydrobenzo[b][1,4]dioxin-5-yl)-6-(hydroxymethyl)tetrahydro-2H-pyran-3,4,5-triol]	2.2	14
CCc1ccc(Cc2cc([C@@H]3O[C@H](CO)[C@@H](O)[C@H](O)[C@H]3O)c3c(c2Br)CCCC3)cc1 [Compound E057, (2S,3R,4R,5S,6R)-2-(4-Bromo-3-(4-ethylbenzyl)-5,6,7,8-tetrahydronaphthalen-1-yl)-6-(hydroxymethyl)tetrahydro-2H-pyran-3,4,5-triol]	0.86	11
CCOc1ccc(Cc2cc([C@@H]3O[C@H](CO)[C@@H](O)[C@H](O)[C@H]3O)c3c(c2Br)CCCC3)cc1 [Compound E058, (2S,3R,4R,5S,6R)-2-(4-Bromo-3-(4-ethoxybenzyl)-5,6,7,8-tetrahydronaphthalen-1-yl)-6-(hydroxymethyl)tetrahydro-2H-pyran-3,4,5-triol]	0.87	17.1
CCOc1ccc(Cc2cc([C@@H]3O[C@H](CO)[C@@H](O)[C@H](O)[C@H]3O)c3c(c2Cl)SCC3)cc1 [Compound E059, (2S,3R,4R,5S,6R)-2-(7-Chloro-6-(4-ethoxybenzyl)-2,3-dihydrobenzo[b]thiophen-4-yl)-6-(hydroxymethyl)tetrahydro-2H-pyran-3,4,5-triol]	1.1	95.1
OC[C@H]1O[C@@H](c2cc(Cc3ccc(C4CC4)cc3)c(Cl)c3c2CCS3)[C@H](O)[C@@H](O)[C@@H]1O [Compound E060, (2S,3R,4R,5S,6R)-2-(7-Chloro-6-(4-cyclopropylbenzyl)-2,3-dihydrobenzo[b]thiophen-4-yl)-6-(hydroxymethyl)tetrahydro-2H-pyran-3,4,5-triol]	0.67	40.9
Cc1ccc(Cc2cc([C@@H]3O[C@H](CO)[C@@H](O)[C@H](O)[C@H]3O)c3c(c2C)OCO3)cc1 [Compound E061, (2R,3S,4R,5R,6S)-2-(Hydroxymethyl)-6-(7-methyl-6-(4-methylbenzyl)benzo[d][1,3]dioxol-4-yl)tetrahydro-2H-pyran-3,4,5-triol]	1.7	27
OC[C@H]1O[C@@H](c2cc(Cc3ccc(C4CCC4)cc3)c(Cl)c3c2OCCC3)[C@H](O)[C@@H](O)[C@@H]1O [Compound E062, (2S,3R,4R,5S,6R)-2-(5-Chloro-6-(4-cyclobutylbenzyl)chroman-8-yl)-6-(hydroxymethyl)tetrahydro-2H-pyran-3,4,5-triol]	1.1	163
